Results on ten compounds are retold here after publication PMC9516332 (Frontiers in Oncology, 2022).

Like-named read-outs stand apart in the source and are kept apart here.

Experiment in all cases: Kinase panel profiling at 1 µmol/L (MSA or IMAP), percentage inhibition
Format in all cases: biochemical

The target in assay [1] is T1, panel of 255 wild-type kinases (Homo sapiens, UniProt Q9UQB9).
T1 sequence (Q9UQB9 1-309): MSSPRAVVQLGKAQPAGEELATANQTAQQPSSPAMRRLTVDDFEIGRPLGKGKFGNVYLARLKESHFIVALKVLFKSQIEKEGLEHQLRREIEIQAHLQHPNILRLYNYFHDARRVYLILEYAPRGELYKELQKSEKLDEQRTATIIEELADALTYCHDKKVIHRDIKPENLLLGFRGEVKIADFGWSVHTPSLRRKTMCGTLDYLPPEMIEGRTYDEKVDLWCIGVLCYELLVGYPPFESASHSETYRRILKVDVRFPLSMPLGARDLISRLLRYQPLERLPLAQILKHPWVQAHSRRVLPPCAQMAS
The settings on record: AurC kinase assay; 1 µmol/L single concentration; read-out: %-inhibition AurC.

In assay [2] the target is T2, panel of 255 wild-type kinases (Homo sapiens, UniProt P29323).
T2 sequence (P29323 19-1055): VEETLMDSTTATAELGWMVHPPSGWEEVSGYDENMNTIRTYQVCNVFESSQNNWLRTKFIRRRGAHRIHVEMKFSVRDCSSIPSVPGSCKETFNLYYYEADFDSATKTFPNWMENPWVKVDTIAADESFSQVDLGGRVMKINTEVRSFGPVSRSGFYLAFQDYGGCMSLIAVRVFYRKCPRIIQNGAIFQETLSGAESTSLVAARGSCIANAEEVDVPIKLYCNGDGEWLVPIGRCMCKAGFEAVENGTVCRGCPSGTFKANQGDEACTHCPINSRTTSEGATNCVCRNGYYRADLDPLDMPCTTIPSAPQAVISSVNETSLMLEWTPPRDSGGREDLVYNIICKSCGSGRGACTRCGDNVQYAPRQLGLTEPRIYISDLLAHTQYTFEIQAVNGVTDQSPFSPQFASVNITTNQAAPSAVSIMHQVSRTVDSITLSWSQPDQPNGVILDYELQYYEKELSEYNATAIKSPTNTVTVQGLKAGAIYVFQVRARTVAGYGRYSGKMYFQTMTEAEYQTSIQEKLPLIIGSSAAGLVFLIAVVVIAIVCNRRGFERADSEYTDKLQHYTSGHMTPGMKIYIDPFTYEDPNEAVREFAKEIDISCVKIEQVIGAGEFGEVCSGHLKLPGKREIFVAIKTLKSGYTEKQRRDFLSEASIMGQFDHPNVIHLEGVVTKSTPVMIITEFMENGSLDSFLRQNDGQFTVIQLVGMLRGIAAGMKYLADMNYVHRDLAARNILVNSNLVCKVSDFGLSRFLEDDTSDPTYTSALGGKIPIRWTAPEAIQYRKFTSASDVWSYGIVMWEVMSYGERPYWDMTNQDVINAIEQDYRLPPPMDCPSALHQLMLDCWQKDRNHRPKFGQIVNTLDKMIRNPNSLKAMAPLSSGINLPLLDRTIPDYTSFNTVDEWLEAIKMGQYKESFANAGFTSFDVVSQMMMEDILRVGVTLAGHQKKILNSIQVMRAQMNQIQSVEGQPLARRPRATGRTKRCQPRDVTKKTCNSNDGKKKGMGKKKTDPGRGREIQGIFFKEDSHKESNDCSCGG
To be noted: kinase EPHB2; 1 µmol/L single concentration; read-out: %-inhibition at 1 µmol/L, EPHB2.

Assay [3] deals with panel of 255 wild-type kinases (Homo sapiens, UniProt O75582). To be noted: MSK1; 1 µmol/L single concentration; read-out: %-inhibition, MSK1.
For assay [4], the target named is T3, panel of 255 wild-type kinases (Homo sapiens, UniProt P53778).
T3 sequence (P53778 1-367): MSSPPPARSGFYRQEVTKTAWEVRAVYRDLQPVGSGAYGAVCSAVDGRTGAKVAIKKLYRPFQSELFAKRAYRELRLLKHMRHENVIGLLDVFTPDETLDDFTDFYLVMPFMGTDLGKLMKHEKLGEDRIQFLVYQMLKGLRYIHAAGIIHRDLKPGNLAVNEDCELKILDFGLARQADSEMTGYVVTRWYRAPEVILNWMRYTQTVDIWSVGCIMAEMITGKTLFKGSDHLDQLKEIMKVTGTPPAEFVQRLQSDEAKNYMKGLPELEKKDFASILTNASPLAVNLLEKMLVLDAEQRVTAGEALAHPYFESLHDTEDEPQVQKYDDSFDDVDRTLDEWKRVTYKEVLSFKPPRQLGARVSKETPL
The settings on record: p38γ; 1 µmol/L single concentration; read-out: %-inhibition, p38γ.

Assay [5] has as its target panel of 255 wild-type kinases (Homo sapiens, UniProt Q15208). The settings on record: NDR1; 1 µmol/L single concentration; read-out: %-inhibition, NDR1.
In assay [6] the target is panel of 255 wild-type kinases (Homo sapiens, UniProt O75676). To be noted: MSK2; 1 µmol/L single concentration; read-out: %-inhibition, MSK2.
Assay [7] addresses panel of 255 wild-type kinases (Homo sapiens, UniProt Q9H4B4). The settings on record: kinase PLK3; 1 µmol/L single concentration; read-out: %-inhibition at 1 µmol/L, PLK3.
The target of assay [8] is panel of 255 wild-type kinases (Homo sapiens, UniProt P35916). The settings on record: kinase FLT4; 1 µmol/L single concentration; read-out: %-inhibition at 1 µmol/L, FLT4.
For assay [9], the target named is T4, panel of 255 wild-type kinases (Homo sapiens, UniProt O14965).
T4 sequence (O14965 1-403): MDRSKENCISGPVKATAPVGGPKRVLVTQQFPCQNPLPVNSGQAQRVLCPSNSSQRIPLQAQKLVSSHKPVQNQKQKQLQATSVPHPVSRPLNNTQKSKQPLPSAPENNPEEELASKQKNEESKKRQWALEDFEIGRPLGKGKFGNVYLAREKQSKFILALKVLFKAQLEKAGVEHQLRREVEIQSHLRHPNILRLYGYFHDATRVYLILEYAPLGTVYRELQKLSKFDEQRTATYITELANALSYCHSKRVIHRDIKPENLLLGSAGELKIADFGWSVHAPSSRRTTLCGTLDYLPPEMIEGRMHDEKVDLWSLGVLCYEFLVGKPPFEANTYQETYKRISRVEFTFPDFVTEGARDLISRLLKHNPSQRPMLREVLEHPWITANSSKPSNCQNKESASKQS
To be noted: 1 µmol/L single concentration.

Setting [10] is: AurA kinase assay, read-out: %-inhibition AurA.
Setting [11] is: AurA/TPX2 kinase assay, read-out: %-inhibition AurA/TPX2.

`O=C(Nc1cnn2ccc(N3CCC[C@@H]3c3cc(F)ccc3F)nc12)N1CC[C@H](O)C1` [larotrectinib]: the inhibition at 1 µM in assay [1] was -0.0475%; in [2] it was -0.574%; in [3], -0.0628%; in assay [4] it was 2.3%; in assay [5], -2.75%; in assay [6] it was -3.36%. Also, the inhibition at 1 µM in [7] is -0.714%; in assay [8], -1%; in [9] (setting [10]) it was -4.5%; in [9] (setting [11]), -3%.

For the compound `C[C@H]1Oc2cc(cnc2N)-c2c(nn(C)c2C#N)CN(C)C(=O)c2ccc(F)cc21` [lorlatinib], the inhibition at 1 µM is 19% in assay [1]; 14% in assay [2]; -8% in assay [3]; -4.48% in [4]; 3.5% in [5]; -3.24% in [6]. Further, the inhibition at 1 µM in assay [7] is 2.15%; in assay [8], 5%; in assay [9] (setting [10]) it was 21%; in assay [9] (setting [11]), 29%.

Take `CCN1C(=O)N(c2c(F)c(OC)cc(OC)c2F)Cc2cnc3[nH]c(CN4CCOCC4)cc3c21` [pemigatinib]: the inhibition at 1 µM is 5% in [1]; -0.799% in [2]; 3.7% in assay [3]; 1.73% in assay [4]; -4.31% in assay [5]; -3.61% in [6]. For the same compound, the inhibition at 1 µM in assay [7] is -1.19%; in assay [8], 99%; in [9] (setting [10]), 11%; in assay [9] (setting [11]), -4.43%.

For the compound `FC(F)(F)c1ccc(CNc2ccc(Cc3c[nH]c4ncc(Cl)cc34)cn2)cn1` [pexidartinib], the inhibition at 1 µM in assay [1] came to 68%; in assay [2] it was 8%; in [3] it was 10%; in assay [4] it was 2.47%; in assay [5] it was 13%; in [6], 4.45%. Besides, the inhibition at 1 µM in [7] came out at 12%; in assay [8], 66%; in assay [9] (setting [10]), 44%; in assay [9] (setting [11]), 21%.

For the compound `CO[C@]1(C(=O)N[C@@H](C)c2ccc(-n3cc(F)cn3)nc2)CC[C@H](c2nc(C)cc(Nc3cc(C)[nH]n3)n2)CC1` [pralsetinib], the inhibition at 1 µM in [1] is 36%; in [2] it was 35%; in assay [3], 10%; in assay [4], -1.77%; in assay [5], 7.54%; in [6], 3.18%. In addition, the inhibition at 1 µM in assay [7] is -0.12%; in [8] it was 99%; in [9] (setting [10]), 73%; in assay [9] (setting [11]) it was 70%.

As to `CCn1c(=O)c(-c2cc(NC(=O)Nc3ccccc3)c(F)cc2Br)cc2cnc(NC)cc21` [ripretinib], the inhibition at 1 µM stood at 0.523% in [1]; 75% in assay [2]; 14% in assay [3]; 0.893% in assay [4]; 0.881% in [5]; 3% in assay [6]. Also, the inhibition at 1 µM in assay [7] is 4%; in assay [8] it was 93%; in [9] (setting [10]), -2%; in assay [9] (setting [11]) it was -0.807%.

In the case of `COc1ccc(CN2C3CC2CN(c2ccc(-c4cc(OCC(C)(C)O)cn5ncc(C#N)c45)cn2)C3)cn1` [selpercatinib], the inhibition at 1 µM is 80% in assay [1]; 64% in [2]; 24% in [3]; 0.277% in assay [4]; -1.18% in assay [5]; 5.66% in [6]. The inhibition at 1 µM in [7] is -1.64%; in assay [8], 101%; in assay [9] (setting [10]), 66%; in assay [9] (setting [11]), 71%.

As for `Cn1cnc2c(F)c(Nc3ccc(Br)cc3Cl)c(C(=O)NOCCO)cc21` [selumetinib], the inhibition at 1 µM was -0.456% in [1]; -0.445% in assay [2]; 3% in assay [3]; -1.75% in [4]; 0.227% in assay [5]; -0.42% in assay [6]. The inhibition at 1 µM in assay [7] was 0.774%; in assay [8], 8%; in [9] (setting [10]), -5.67%; in assay [9] (setting [11]) it was -8%.

For `Cc1cc(Nc2ncnc3ccc(NC4=NC(C)(C)CO4)cc23)ccc1Oc1ccn2ncnc2c1` [tucatinib], the inhibition at 1 µM was -5.26% in [1]; 2.14% in assay [2]; 2.56% in [3]; -1.75% in [4]; -0.331% in assay [5]; 1.24% in assay [6]. In addition, the inhibition at 1 µM in assay [7] is 1.59%; in assay [8], 13%; in [9] (setting [10]), -1.53%; in assay [9] (setting [11]) it was -9%.

As for `C=CC(=O)N1CCC([C@@H]2CCNc3c(C(N)=O)c(-c4ccc(Oc5ccccc5)cc4)nn32)CC1` [zanubrutinib], the inhibition at 1 µM is -0.855% in assay [1]; -1.07% in [2]; 0.565% in [3]; 4% in [4]; -1.86% in [5]; -4% in assay [6]. The inhibition at 1 µM was -4.39% in assay [7], 6.34% in assay [8], -1.42% in assay [9] (setting [10]) and -0.885% in [9] (setting [11]).
